Results published in ChEMBL document CHEMBL2177005, “Mineralocorticoid receptor antagonists for the treatment of hypertension and diabetic nephropathy” (J Med Chem, 2012).

Columns and labels:
Progesterone receptor [1] = biological target: T1, Progesterone receptor (Homo sapiens, UniProt P06401); test: Antagonist activity at progesterone receptor; format: functional
T1 sequence (P06401 whole entry): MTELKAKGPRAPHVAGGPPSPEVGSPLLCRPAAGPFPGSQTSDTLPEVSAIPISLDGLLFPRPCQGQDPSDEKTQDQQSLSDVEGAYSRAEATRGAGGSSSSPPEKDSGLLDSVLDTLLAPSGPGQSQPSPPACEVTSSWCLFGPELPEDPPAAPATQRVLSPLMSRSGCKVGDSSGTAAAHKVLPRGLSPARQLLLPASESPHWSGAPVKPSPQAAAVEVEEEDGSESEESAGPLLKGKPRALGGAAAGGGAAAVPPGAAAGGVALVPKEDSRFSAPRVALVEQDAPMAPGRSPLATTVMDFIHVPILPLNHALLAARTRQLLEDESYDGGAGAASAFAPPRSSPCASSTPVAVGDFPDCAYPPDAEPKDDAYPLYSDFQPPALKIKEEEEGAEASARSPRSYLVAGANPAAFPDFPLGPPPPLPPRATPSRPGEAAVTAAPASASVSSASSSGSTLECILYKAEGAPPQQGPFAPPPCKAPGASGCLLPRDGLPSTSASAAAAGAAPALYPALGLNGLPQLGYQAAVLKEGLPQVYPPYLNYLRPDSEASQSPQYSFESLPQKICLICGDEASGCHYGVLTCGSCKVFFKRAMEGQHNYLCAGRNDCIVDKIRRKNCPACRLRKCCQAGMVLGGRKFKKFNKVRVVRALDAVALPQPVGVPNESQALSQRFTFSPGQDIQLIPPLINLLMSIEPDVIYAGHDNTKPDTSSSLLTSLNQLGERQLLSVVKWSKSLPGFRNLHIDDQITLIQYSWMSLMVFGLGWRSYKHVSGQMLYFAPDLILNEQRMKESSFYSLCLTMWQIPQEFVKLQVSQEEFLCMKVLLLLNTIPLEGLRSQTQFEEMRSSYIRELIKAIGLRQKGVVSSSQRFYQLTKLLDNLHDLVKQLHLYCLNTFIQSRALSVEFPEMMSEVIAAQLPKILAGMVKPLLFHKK

Glucocorticoid receptor [2] = biological target: T2, Glucocorticoid receptor (Homo sapiens, UniProt P04150); test: Displacement of [3H]dexamethasone from human glucocorticoid receptor overexpressed in HEK293 cells by microbeta counting assay; format: cell-based
T2 sequence (P04150 whole entry): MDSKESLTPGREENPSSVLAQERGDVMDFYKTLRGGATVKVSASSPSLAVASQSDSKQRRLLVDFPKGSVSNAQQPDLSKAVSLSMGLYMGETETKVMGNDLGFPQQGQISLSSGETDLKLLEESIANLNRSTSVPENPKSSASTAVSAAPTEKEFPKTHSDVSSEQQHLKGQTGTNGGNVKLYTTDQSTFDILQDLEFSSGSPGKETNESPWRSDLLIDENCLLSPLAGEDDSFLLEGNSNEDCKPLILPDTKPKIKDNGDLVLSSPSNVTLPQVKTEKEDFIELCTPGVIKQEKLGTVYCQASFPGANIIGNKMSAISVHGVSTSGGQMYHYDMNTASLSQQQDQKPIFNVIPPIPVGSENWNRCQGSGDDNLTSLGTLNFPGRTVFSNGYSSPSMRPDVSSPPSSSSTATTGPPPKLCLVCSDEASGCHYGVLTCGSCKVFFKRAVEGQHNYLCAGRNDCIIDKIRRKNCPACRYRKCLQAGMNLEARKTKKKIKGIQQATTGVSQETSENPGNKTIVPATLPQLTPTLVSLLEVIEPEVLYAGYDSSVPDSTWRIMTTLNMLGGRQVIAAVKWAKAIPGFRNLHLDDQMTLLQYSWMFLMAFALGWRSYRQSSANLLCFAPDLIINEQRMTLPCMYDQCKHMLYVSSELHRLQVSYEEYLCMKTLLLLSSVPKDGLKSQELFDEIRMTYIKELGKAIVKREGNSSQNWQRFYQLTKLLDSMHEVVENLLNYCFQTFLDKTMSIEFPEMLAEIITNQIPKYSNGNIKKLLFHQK

Androgen receptor [3] = biological target: T3, Androgen receptor (Homo sapiens, UniProt P10275); test: Displacement of [3H]-methyltrienolone from human androgen receptor overexpressed in HEK293 cells by microbeta counting assay; format: cell-based
T3 sequence (P10275 whole entry): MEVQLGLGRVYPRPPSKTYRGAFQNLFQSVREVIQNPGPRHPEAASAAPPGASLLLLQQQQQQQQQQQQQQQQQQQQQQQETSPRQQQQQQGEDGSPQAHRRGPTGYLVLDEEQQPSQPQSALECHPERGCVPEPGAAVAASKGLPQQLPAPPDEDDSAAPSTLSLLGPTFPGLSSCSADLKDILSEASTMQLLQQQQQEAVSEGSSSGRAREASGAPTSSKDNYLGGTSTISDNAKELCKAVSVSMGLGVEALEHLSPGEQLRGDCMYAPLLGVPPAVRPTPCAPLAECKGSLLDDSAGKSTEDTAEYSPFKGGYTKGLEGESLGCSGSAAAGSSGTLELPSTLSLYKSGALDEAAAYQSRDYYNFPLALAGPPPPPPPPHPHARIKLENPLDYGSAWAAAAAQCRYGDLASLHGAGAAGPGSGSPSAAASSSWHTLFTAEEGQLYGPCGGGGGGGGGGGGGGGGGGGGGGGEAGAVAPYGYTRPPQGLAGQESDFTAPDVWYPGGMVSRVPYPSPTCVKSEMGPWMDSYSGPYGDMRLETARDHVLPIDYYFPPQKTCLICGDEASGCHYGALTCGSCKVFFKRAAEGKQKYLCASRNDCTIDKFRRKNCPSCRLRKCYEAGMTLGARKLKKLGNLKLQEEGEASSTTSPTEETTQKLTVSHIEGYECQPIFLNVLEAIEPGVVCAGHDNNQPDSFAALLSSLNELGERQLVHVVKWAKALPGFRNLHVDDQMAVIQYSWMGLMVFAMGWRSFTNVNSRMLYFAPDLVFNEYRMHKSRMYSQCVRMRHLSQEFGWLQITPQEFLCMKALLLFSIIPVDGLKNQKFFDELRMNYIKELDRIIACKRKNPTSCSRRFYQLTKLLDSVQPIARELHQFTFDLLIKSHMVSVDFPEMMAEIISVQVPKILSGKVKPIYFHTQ

Progesterone receptor [4] = biological target: T1, Progesterone receptor; test: Displacement of [3H]methyltrienolone from human progesterone receptor overexpressed in HEK293 cells by microbeta counting assay; format: cell-based
[5] = biological target: T4, Mineralocorticoid receptor (Homo sapiens, UniProt P08235); test: Displacement of [3H]aldosterone from human mineralocorticoid receptor overexpressed in HEK293 cells by microbeta counting assay; format: cell-based
T4 sequence (P08235 whole entry): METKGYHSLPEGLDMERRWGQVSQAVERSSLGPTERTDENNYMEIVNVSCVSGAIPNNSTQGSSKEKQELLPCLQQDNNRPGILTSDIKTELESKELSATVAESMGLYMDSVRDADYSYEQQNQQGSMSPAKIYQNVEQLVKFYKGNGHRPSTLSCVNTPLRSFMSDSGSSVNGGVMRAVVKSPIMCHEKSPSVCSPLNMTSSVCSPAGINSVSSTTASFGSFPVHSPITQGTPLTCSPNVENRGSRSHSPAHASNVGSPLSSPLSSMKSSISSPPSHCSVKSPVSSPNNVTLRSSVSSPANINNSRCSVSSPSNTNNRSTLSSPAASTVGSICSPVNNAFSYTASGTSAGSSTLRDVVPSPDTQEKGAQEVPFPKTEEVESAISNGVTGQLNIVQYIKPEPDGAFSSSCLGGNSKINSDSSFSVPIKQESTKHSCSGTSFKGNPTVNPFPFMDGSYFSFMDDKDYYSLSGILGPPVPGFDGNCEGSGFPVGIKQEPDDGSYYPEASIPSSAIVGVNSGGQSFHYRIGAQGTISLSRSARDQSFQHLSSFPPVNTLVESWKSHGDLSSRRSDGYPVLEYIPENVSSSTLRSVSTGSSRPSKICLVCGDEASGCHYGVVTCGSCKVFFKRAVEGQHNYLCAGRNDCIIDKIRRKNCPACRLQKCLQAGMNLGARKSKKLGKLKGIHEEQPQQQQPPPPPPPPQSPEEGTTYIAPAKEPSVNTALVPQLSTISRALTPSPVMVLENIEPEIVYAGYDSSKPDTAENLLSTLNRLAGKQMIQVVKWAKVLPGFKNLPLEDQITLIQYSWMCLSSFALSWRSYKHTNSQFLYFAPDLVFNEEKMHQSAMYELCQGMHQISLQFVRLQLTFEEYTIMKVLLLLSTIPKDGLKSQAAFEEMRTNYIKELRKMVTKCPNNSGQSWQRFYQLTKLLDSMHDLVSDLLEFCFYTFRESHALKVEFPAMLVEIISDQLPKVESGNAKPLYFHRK

[6] = biological target: T4, Mineralocorticoid receptor; test: Antagonist activity against human mineralocorticoid receptor expressed in CHOK1 cells after 10 to 30 mins by luciferase reporter gene assay; format: functional, cell-based, CHO-K1
Progesterone receptor [7] = biological target: T1, Progesterone receptor; test: Antagonist activity against progesterone receptor expressed in CHOK1 cells after 10 to 30 mins by luciferase reporter gene assay; format: functional, cell-based, CHO-K1
Glucocorticoid receptor [8] = biological target: T2, Glucocorticoid receptor; test: Antagonist activity against glucocorticoid receptor expressed in CHOK1 cells after 10 to 30 mins by luciferase reporter gene assay; format: functional, cell-based, CHO-K1
Androgen receptor [9] = biological target: T3, Androgen receptor; test: Antagonist activity against androgen receptor expressed in CHOK1 cells after 10 to 30 mins by luciferase reporter gene assay; format: functional, cell-based, CHO-K1
[10] = biological target: T5, Mineralocorticoid receptor (Rattus norvegicus, UniProt P22199); test: Displacement of [3H]-aldosterone from rat mineralocorticoid receptor after 18 hrs by liquid scintillation counter analysis
T5 sequence (P22199 whole entry): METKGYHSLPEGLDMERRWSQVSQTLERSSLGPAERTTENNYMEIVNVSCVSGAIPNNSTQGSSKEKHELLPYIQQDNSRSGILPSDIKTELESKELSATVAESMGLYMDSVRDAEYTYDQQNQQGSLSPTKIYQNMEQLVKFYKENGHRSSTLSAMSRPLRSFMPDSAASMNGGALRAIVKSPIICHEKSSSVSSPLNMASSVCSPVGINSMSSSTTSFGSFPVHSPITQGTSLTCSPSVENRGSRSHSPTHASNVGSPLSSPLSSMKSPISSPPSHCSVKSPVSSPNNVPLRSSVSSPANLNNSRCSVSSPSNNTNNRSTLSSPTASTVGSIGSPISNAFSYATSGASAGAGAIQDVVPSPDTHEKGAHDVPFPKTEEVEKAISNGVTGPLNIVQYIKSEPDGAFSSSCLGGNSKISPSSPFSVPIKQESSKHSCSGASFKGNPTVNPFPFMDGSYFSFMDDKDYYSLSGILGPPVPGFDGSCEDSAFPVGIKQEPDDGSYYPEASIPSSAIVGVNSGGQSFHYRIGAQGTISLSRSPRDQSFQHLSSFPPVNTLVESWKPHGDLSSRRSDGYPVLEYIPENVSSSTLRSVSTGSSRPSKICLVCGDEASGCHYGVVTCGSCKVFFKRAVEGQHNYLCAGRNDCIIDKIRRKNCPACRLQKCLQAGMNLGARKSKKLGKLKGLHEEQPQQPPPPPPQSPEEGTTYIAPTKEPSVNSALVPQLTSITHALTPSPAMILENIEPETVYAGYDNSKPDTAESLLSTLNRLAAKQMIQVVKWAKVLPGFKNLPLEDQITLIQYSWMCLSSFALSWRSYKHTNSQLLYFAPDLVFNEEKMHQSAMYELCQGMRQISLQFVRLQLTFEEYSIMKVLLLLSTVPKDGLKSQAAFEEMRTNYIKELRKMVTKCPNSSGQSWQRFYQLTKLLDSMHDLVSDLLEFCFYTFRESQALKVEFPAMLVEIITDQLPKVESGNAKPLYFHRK

[11] = biological target: T4, Mineralocorticoid receptor; test: Antagonist activity at mineralocorticoid receptor expressed in african green monkey COS7 cells after 18 hrs by luciferase reporter gene assay; format: functional, cell-based, COS-7
[12] = biological target: T5, Mineralocorticoid receptor; test: Displacement of [3H]Aldosterone C from rat mineralocorticoid receptor by liquid scintillation counter analysis
[13] = biological target: T4, Mineralocorticoid receptor; test: Antagonist activity at mineralocorticoid receptor; format: functional
[14] = Protein binding in plasma; format: ADME, cell-free; conditions: read-out: PPB (converted)
[15] = Binding affinity to Ca2+ channel L type by radioligand binding assay
[16] = biological target: T5, Mineralocorticoid receptor; test: Binding affinity to rat mineralocorticoid receptor

An IC50 (Progesterone receptor [1]) of over 10000 nM was found for O=C1COc2ccc(C3=Nn4cnnc4SC3c3ccccc3)cc2N1 (configuration not stated) in this work.

A Ki (Glucocorticoid receptor [2]) of 669 nM, a Ki (Androgen receptor [3]) of 1170 nM and a Ki (Progesterone receptor [4]) of 478 nM were found for O=c1[nH]c2cc(/C=C3\c4ccccc4COc4cc(F)ccc43)ccc2n1[C@H]1C[C@H]2COCCN2C1 in this work. The Ki [5] was 0.4 nM.

An IC50 [6] of 28 nM, an IC50 (Progesterone receptor [7]) of 9020 nM and an IC50 (Glucocorticoid receptor [8]) of 5470 nM were found for CCOC(=O)C1=C(C)NC(C)=C(C(C)=O)[C@H]1c1cccc2c(=O)cc(C)oc12 in this work. It also gave an IC50 (Androgen receptor [9]) of 4440 nM.

An IC50 [10] of 21 nM and an IC50 [11] of 130 nM were found for CC1(C)OC(=S)Nc2ccc(NS(=O)(=O)c3cccs3)cc21 in this work.

An IC50 [12] of 22 nM was found for COc1cc(C(=O)Nc2ccc(-c3ccccc3OC(F)(F)F)c(CCN(C)C3CC3)c2)ccc1S(N)(=O)=O in this work.

An IC50 [13] of 2.4 nM was found for Cc1c(C(=O)Nc2ccc(S(C)(=O)=O)cc2)cn(CCO)c1-c1ccccc1C(F)(F)F in this work.

A fraction unbound [14] of 0.1 was found for COC(=O)[C@@H]1CC2=CC(=O)CC[C@]2(C)[C@@]23O[C@@H]2C[C@@]2(C)[C@@H](CC[C@@]24CCC(=O)O4)[C@H]13 [EPLERENONE] in this work.

An IC50 [15] of over 1000 nM was found for CCOc1ncc(C)c2c1[C@H](c1ccc(C#N)cc1OC)C(C(N)=O)=C(C)N2 [FINERENONE] in this work.

An IC50 [16] of under 500 nM was found for CC1(C)Oc2cc(NS(C)(=O)=O)ccc2N(c2ccc(F)cc2)C1=O [MT-3995] in this work.

A fraction unbound [14] of 0.51 was found for CC(=O)S[C@@H]1CC2=CC(=O)CC[C@]2(C)[C@H]2CC[C@@]3(C)[C@@H](CC[C@@]34CCC(=O)O4)[C@H]12 [SPIRONOLACTONE] in this work.
